This is an account of results in PMC6830212, “Crystal structure of the putative cyclase IdmH from the indanomycin nonribosomal peptide synthase/polyketide synthase” (IUCrJ, 2019).

Series [1] has as its target T1, IdmH (Streptomyces antibioticus, UniProt C5HV10).
T1 construct: full length (145 residues), N-terminal His6 tag with thrombin site (pET-28a), E. coli BL21(DE3); homodimer
Briefly: 1H-15N HSQC-TROSY chemical shift perturbation titration. It is filed as binding. The following applies: 0.2 mM 15N-labelled IdmH, 0-200 uM indanomycin; 20 mM Tris pH 7.3, 50 mM NaCl, 1 mM DTT, 25 C; proposed active-site pocket; proposed (not shown) reaction product.

Series [2] concerns the molecule itself. Briefly: SEC + other: LC/MS; oligomeric state of purified, tag-cleaved wild-type IdmH; conditions of this analysis not told in the text (Supplementary Fig. S4).

For the molecule `CC/C(=C\C=C\[C@@H]1C=C[C@@H]2[C@@H](CC)CC[C@H]2[C@@H]1C(=O)c1ccc[nH]1)[C@@H]1O[C@@H]([C@@H](C)C(=O)O)CC[C@@H]1C` [compound 1, indanomycin], the “1H-15N HSQC-TROSY chemical shift perturbation titration” value in series [1] is recorded as “indanomycin can bind to IdmH in the proposed active site”.

B1: wild-type IdmH (full-length putative indane cyclase from the indanomycin NRPS/PKS pathway) (enzyme, UniProt C5HV10 1-145, looked up)
chain: MAHQPSDTIAGLYEAFNSGDLETLRELIAPDAVIHLPGTAGDAEHPPGTPRDREGWLGVWQFTQAFFPDMTATVQDIVQTGDLVATRCVARGTHSIEFMGVPPTGRPFEMTMLNMSRVRDGRIVEHWTISDNVTMLAQLGVKASL
notes: IdmH, Streptomyces antibioticus NRRL 8167, full-length idmH gene (ACN69984.1) amplified from genomic DNA; 145 amino acids as printed; Cloned in pET-28a at NdeI; residues of the thrombin site may remain at the N-terminus after cleavage (surmised); also called full-length IdmH; native IdmH; source: E. coli BL21(DE3), purified (HisTrap, thrombin cleavage, HiTrap Q, Superdex 75 SEC); not shown: His6, …
For B1, the “stoichiometry N” value in series [2] turned out to be 2.

In general, stoichiometry N refers to a count of units in the complex or per binding partner.
